{"source": "patent US4999371A", "about": "“Substituted 3,4-dihydro-2H-benzopyrans, processes for their preparation, their use and pharmaceutical products based on these compounds” (Hoechst Aktiengesellschaft, priority 1987, dated 1991)", "tested_on": "Langendorff heart preparation", "assay": "Coronary flow in the Langendorff heart preparation of Guinea pigs", "details": "6 heart preparations", "protocol": "Coronary flow in the Langendorff heart preparation of Guinea pigs\nGuinea pigs of either sex were killed by a blow on the head. The hearts were quickly removed and perfused according to Langendorff (Langendorff, Pflugers Arch. Ges. Physiol. 190, 280 (1895)) with a Ringer solution containing 154 mMol NaCl, 5,6 mMol KCl, 1,9 mMol CaCl2, 2,4 mMol NaHCO3 and 5 mMol glucose which was gassed with oxygen. The temperature of the solution was 37° C. The test substances dissolved in propanediol (0,1%) were added to the inflowing Ringer solution by bolus injection into the inflow tract. The effect, i.e. changes of the coronary outflow, was measured with a drop counter and registered on a Hellige Multiscriptor (Hellige GmbH, Freiburg, Germany) For each compound increase in coronary outflow was measured for three different doses and each dose was tested in 6 different heart preparations."}
{"smiles": "CC1(C)Oc2ccc(S(C)(=O)=O)cc2[C@@H](N2CCCC2=O)[C@@H]1O", "note": "(racemic) [(±)-2,2-Dimethyl-3,4-dihydro-6-methylsulfonyl-trans-4-(2-oxo-1-pyrrolidinyl)-2H-benzo[b]pyran-3-ol, reference compound]", "values": [{"measurement": "Duration of elevated coronary outflow", "setting": "single dose 2000 ng", "result": 5, "unit": "min"}]}
{"smiles": "CC1(C)Oc2ccc(C#N)cc2[C@@H](N2CCCC2=O)[C@@H]1O", "note": "(racemic) [(±)-6-Cyano-3,4-dihydro-2,2-dimethyl-trans-4-(2-oxo-1-pyrrolidinyl)-2H-benzo[b]pyran-3-ol, reference compound]", "values": [{"measurement": "Duration of elevated coronary outflow", "setting": "single dose 500 ng", "result": 6, "unit": "min"}]}
{"smiles": "COc1cc2c(cc1S(=O)(=O)c1ccccc1)[C@@H](N1CCCC1=O)[C@H](O)C(C)(C)O2", "note": "(relative stereo) [Example 3, 3,4-Dihydro-2,2-dimethyl7-methoxy-6-phenylsulfonyl-trans-4-(2-oxo-1-pyrrolidinyl)-2H -benzo[b]-3-ol]", "values": [{"measurement": "Duration of elevated coronary outflow", "setting": "single dose 500 ng", "result": 14, "unit": "min"}]}
{"smiles": "Cc1ccc(S(=O)(=O)c2ccc3c(c2)[C@@H](N2CCCC2=O)[C@H](O)C(C)(C)O3)cc1", "note": "(relative stereo) [Example 4, 3,4-Dihydro-2,2-dimethyl-6-(4-methylphenylsulfonyl)-trans-4-(2-oxo-1-pyrrolidinyl)-2H -benzo[b]pyran-3-ol]", "values": [{"measurement": "Duration of elevated coronary outflow", "setting": "single dose 500 ng", "result": 11, "unit": "min"}]}
{"smiles": "CC1(C)Oc2ccc(S(=O)(=O)c3ccccc3)cc2[C@@H](N2CCCC2=O)[C@@H]1O", "note": "(relative stereo) [Example 5, 3,4-Dihydro-2,2-dimethyl-6-phenylsulfonyl-trans-4-(2-oxo1-pyrrolidinyl)-2H-benzo[b]pyran-3-ol]", "values": [{"measurement": "Duration of elevated coronary outflow", "setting": "single dose 400 ng", "result": 11, "unit": "min"}]}
{"smiles": "Cc1ccccc1S(=O)(=O)c1ccc2c(c1)[C@@H](N1CCCC1=O)[C@H](O)C(C)(C)O2", "note": "(relative stereo) [Example 14, 3,4-Dihydro-2,2-dimethyl-6-(2-methylphenylsulfonyl)-trans4-(2-oxo-1-pyrrolidinyl)-2H-benzo [b]pyran-3-ol]", "values": [{"measurement": "Duration of elevated coronary outflow", "setting": "single dose 200 ng", "result": 13, "unit": "min"}]}
{"smiles": "CC1(C)Oc2ccc(S(=O)(=O)c3ccccc3)cc2[C@@H](N2CCCC2=O)[C@@H]1O", "note": "(single isomer, unassigned) [Example 5a, (+)-3,4-Dihydro-2,2-dimethyl-6-phenylsulfonyl-4-(2-oxo-1-pyrrolidinyl)-2H-benzo[b]pyran-3-ol]", "values": [{"measurement": "Duration of elevated coronary outflow", "setting": "single dose 100 ng", "result": 13, "unit": "min"}]}
{"smiles": "COc1cc2c(cc1S(=O)(=O)c1ccccc1)[C@@H](N1CCCC1=O)[C@H](O)C(C)(C)O2", "note": "[Example 3a, (+)-3,4-dihydro-2,2-dimethyl-7-methoxy-6-phenylsulfonyl-trans-4-(2-oxo-1-pyrrolidinyl)-2H-benzo[b]pyran-3-ol]", "values": [{"measurement": "Duration of elevated coronary outflow", "setting": "single dose 500 ng", "result": 11, "unit": "min"}]}
